Laboratory results taken from ChEMBL document CHEMBL4507263, “Data for DCP probe BAY-474” (2021).

Experiments:
[1] = molecular target: voltage-gated sodium channel, site 2 (Rattus norvegicus, UniProt F1LQQ7+O08562+O88420+O88457+P04774+P04775+P08104+P15389+P15390+Q62968); assay: Inhibition of Sodium Channel, Site 2 at 10 µM in the Eurofins-Panlabs radioligand binding assay (Eurofins_assay_279510); type: protein assay; design: ligand concentration 5 nM, non-specific ligand with concentration 100 µM Veratridine, incubation time 60 min, incubation temperature 37 °C; conditions: male, Wistar, rat whole brain (except cerebellum) membranes, probe [3H] Batrachotoxinin, compound concentration 10 uM
[2] = molecular target: Protein kinase C theta type (Homo sapiens) (UniProt Q04759); assay: PKCtheta (h) Millipore kinase activity assay; conditions: Compound concentration 1.0 uM
[3] = molecular target: Testis-specific serine/threonine-protein kinase 2 (Homo sapiens) (UniProt Q96PF2); assay: TSSK2 (h) Millipore kinase activity assay; conditions: Compound concentration 1.0 uM
[4] = molecular target: Rho-associated protein kinase 2 (Homo sapiens) (UniProt O75116); assay: ROCK-II (h) Millipore kinase activity assay; conditions: Compound concentration 1.0 uM
[5] = molecular target: Serine/threonine-protein kinase Nek2 (Homo sapiens) (UniProt P51955); assay: NEK2 (h) Millipore kinase activity assay; conditions: Compound concentration 1.0 uM
[6] = molecular target: B2 bradykinin receptor (Homo sapiens) (UniProt P30411); conditions: Compound concentration 10.0 uM
[7] = molecular target: Sodium-dependent dopamine transporter (Homo sapiens) (UniProt Q01959); conditions: Compound concentration 10.0 uM
[8] = molecular target: Maternal embryonic leucine zipper kinase (Homo sapiens) (UniProt Q14680); assay: MELK (h) Millipore kinase activity assay; conditions: Compound concentration 1.0 uM
[9] = molecular target: 5-hydroxytryptamine receptor 2B (Homo sapiens) (UniProt P41595); conditions: Compound concentration 10.0 uM
[10] = molecular target: T1, Alpha-1D adrenergic receptor (Homo sapiens) (UniProt P25100); assay: Inhibition of Adrenergic alpha1D at 10 µM in the Eurofins-Panlabs radioligand binding assay (Eurofins_assay_203400); conditions: Compound concentration 10.0 uM
T1 sequence (whole entry): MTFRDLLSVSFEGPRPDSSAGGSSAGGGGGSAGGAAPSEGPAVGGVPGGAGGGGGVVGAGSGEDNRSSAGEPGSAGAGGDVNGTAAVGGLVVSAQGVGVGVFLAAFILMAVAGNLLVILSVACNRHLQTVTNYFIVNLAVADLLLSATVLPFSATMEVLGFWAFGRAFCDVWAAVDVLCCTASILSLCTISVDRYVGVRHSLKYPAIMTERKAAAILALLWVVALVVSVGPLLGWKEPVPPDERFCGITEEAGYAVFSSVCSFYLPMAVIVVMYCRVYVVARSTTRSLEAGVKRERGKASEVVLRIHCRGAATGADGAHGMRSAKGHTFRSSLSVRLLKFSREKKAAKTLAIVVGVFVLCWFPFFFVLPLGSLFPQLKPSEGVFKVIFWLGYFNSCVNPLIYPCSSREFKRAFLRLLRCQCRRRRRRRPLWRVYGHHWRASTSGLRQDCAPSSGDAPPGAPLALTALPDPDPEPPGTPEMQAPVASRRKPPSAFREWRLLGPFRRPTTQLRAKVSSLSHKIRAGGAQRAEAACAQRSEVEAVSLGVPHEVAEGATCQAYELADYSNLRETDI

[11] = molecular target: Angiopoietin-1 receptor (Homo sapiens) (UniProt Q02763); assay: Tie2 (h) Millipore kinase activity assay; conditions: Compound concentration 1.0 uM
[12] = organism: Rattus norvegicus; assay: Inhibition of Rolipram at 10 µM in the Eurofins-Panlabs radioligand binding assay (Eurofins_assay_268811); type: protein assay; design: ligand concentration 1.8 nM; conditions: Compound concentration 10.0 uM
[13] = molecular target: Serine/threonine-protein kinase pim-2 (Homo sapiens) (UniProt Q9P1W9); assay: Pim-2 (h) Millipore kinase activity assay; conditions: Compound concentration 1.0 uM
[14] = molecular target: 1-phosphatidylinositol 3-phosphate 5-kinase (Homo sapiens) (UniProt Q9Y2I7); conditions: Compound concentration 1000.0 nM
[15] = tested on: Phosphatidylinositol 4,5-bisphosphate 3-kinase catalytic subunit alpha isoform (Homo sapiens), P42336 [E542K]; conditions: Compound concentration 1000.0 nM
[16] = molecular target: Serine/threonine-protein kinase PRP4 homolog (Homo sapiens) (UniProt Q13523); conditions: Compound concentration 1000.0 nM
[17] = molecular target: Transient receptor potential cation channel subfamily M member 6 (Homo sapiens) (UniProt Q9BX84); conditions: Compound concentration 1000.0 nM
[18] = molecular target: Serine/threonine-protein kinase 38 (Homo sapiens) (UniProt Q15208); conditions: Compound concentration 1000.0 nM
[19] = tested on: Proto-oncogene tyrosine-protein kinase receptor Ret (Homo sapiens), P07949 [V804L]; conditions: Compound concentration 1000.0 nM
[20] = molecular target: Calcium/calmodulin-dependent protein kinase type 1B (Homo sapiens) (UniProt Q6P2M8); conditions: Compound concentration 1000.0 nM
[21] = molecular target: Tyrosine-protein kinase HCK (Homo sapiens) (UniProt P08631); conditions: Compound concentration 1000.0 nM
[22] = molecular target: Serine/threonine-protein kinase RIO3 (Homo sapiens) (UniProt O14730); conditions: Compound concentration 1000.0 nM
[23] = molecular target: Serine/threonine-protein kinase VRK2 (Homo sapiens) (UniProt Q86Y07); conditions: Compound concentration 1000.0 nM
[24] = molecular target: Serine/threonine-protein kinase 33 (Homo sapiens) (UniProt Q9BYT3); conditions: Compound concentration 1000.0 nM
[25] = molecular target: Focal adhesion kinase 1 (Homo sapiens) (UniProt Q05397); conditions: Compound concentration 1000.0 nM
[26] = molecular target: Serine/threonine-protein kinase/endoribonuclease IRE1 (Homo sapiens) (UniProt O75460); conditions: Compound concentration 1000.0 nM
[27] = molecular target: Tyrosine-protein kinase Lyn (Homo sapiens) (UniProt P07948); conditions: Compound concentration 1000.0 nM
[28] = tested on: Leucine-rich repeat serine/threonine-protein kinase 2 (Homo sapiens), Q5S007 [G2019S]; conditions: Compound concentration 1000.0 nM
[29] = molecular target: Ribosomal protein S6 kinase alpha-2 (Homo sapiens) (UniProt Q15349); conditions: Compound concentration 1000.0 nM
[30] = molecular target: Serine/threonine-protein kinase Chk1 (Homo sapiens) (UniProt O14757); conditions: Compound concentration 1000.0 nM
[31] = molecular target: Serine/threonine-protein kinase RIO1 (Homo sapiens) (UniProt Q9BRS2); conditions: Compound concentration 1000.0 nM
[32] = molecular target: Mitogen-activated protein kinase kinase kinase 3 (Homo sapiens) (UniProt Q99759); conditions: Compound concentration 1000.0 nM
[33] = molecular target: Cyclin-dependent kinase 3 (Homo sapiens) (UniProt Q00526); conditions: Compound concentration 1000.0 nM
[34] = molecular target: Tyrosine-protein kinase JAK3 (Homo sapiens) (UniProt P52333); conditions: Compound concentration 1000.0 nM
[35] = molecular target: Mitogen-activated protein kinase kinase kinase 12 (Homo sapiens) (UniProt Q12852); conditions: Compound concentration 1000.0 nM

Rho-associated protein kinase 2 (Homo sapiens), sequence (O75116 whole entry, looked up): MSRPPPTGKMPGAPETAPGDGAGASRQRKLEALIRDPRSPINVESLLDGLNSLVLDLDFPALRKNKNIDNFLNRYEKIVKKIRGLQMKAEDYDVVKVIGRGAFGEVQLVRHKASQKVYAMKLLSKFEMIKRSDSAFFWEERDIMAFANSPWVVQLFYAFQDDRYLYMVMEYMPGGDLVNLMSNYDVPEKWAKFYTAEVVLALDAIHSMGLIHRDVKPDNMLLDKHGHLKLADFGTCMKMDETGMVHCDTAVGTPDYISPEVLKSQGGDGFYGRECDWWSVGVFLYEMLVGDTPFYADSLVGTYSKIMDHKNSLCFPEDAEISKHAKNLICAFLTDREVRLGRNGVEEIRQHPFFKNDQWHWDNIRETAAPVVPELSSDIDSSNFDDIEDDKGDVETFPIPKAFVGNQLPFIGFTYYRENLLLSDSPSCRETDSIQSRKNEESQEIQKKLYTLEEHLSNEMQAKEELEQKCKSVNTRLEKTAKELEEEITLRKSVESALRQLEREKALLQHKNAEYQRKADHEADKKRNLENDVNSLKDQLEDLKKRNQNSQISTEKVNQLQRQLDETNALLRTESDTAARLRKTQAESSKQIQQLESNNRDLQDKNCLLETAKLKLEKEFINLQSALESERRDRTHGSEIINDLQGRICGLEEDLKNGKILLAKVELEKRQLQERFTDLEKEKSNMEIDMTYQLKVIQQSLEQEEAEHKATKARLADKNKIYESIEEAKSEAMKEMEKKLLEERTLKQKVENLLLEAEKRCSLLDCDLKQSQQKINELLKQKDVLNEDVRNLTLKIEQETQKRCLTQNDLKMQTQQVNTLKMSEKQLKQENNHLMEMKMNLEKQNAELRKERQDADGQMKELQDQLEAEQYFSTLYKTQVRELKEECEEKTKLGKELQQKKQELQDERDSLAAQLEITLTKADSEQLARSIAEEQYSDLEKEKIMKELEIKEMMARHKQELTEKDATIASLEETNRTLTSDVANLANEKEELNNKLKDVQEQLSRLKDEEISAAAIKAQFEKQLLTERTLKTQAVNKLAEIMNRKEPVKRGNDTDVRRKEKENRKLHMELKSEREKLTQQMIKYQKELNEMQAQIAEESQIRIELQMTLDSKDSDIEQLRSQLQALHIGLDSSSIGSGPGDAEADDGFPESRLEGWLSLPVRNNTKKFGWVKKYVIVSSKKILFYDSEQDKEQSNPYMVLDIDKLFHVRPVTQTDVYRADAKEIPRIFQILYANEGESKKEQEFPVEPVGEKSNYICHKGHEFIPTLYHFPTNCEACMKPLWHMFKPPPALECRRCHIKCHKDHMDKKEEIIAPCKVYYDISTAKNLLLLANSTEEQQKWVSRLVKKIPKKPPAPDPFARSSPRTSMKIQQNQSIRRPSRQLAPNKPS
Transient receptor potential cation channel subfamily M member 6 (Homo sapiens), sequence (Q9BX84 whole entry): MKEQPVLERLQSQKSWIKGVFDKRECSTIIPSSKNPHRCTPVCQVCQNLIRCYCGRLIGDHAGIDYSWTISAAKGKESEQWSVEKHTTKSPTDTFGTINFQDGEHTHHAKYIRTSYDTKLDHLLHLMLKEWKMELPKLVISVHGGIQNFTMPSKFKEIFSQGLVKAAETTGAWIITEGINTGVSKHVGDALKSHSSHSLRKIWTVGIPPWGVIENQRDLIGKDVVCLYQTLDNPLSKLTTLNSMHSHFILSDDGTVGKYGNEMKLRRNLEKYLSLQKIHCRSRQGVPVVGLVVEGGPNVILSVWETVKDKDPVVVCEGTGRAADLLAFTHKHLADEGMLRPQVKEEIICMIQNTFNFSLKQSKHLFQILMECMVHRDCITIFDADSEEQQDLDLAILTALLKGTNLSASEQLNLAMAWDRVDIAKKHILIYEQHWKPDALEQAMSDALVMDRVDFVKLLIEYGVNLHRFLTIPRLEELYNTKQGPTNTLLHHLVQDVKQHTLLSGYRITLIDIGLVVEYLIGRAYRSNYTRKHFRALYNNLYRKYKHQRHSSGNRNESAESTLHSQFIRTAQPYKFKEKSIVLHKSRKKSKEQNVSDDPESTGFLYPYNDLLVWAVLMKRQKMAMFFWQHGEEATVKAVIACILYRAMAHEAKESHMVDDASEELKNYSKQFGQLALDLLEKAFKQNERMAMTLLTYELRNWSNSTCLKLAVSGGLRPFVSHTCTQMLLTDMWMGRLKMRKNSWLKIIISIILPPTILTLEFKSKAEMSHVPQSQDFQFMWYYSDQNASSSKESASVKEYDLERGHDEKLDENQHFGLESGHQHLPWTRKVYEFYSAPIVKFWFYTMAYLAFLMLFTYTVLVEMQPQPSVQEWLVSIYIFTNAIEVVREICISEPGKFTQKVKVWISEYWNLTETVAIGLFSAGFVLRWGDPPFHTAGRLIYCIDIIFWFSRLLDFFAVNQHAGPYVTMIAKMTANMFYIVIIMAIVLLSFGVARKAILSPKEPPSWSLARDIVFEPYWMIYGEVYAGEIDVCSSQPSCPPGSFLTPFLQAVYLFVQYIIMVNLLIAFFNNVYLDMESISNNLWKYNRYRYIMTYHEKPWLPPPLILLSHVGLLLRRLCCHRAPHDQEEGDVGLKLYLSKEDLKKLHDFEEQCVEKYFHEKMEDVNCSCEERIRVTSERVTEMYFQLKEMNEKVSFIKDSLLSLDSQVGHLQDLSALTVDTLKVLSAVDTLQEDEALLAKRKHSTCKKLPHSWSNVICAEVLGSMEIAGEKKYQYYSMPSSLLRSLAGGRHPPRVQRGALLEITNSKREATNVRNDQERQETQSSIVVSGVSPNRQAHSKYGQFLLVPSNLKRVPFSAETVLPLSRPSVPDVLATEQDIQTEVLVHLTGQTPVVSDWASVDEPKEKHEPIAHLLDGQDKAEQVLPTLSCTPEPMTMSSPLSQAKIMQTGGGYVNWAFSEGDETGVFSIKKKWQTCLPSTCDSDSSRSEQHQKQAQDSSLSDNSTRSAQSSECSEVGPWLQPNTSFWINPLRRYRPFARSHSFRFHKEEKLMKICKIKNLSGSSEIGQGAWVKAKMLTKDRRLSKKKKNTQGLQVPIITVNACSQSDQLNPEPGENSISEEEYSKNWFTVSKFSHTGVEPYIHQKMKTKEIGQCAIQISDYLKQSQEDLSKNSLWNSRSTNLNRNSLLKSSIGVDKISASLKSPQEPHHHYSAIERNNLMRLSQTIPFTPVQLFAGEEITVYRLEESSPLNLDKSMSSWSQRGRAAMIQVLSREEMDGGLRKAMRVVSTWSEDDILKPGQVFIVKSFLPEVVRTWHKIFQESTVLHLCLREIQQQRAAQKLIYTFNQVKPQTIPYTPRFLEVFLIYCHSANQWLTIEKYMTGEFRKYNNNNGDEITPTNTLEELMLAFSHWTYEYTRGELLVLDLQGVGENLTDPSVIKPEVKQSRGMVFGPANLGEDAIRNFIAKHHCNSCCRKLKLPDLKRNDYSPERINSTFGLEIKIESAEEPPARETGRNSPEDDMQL
Tyrosine-protein kinase JAK3 (Homo sapiens), sequence (P52333 whole entry): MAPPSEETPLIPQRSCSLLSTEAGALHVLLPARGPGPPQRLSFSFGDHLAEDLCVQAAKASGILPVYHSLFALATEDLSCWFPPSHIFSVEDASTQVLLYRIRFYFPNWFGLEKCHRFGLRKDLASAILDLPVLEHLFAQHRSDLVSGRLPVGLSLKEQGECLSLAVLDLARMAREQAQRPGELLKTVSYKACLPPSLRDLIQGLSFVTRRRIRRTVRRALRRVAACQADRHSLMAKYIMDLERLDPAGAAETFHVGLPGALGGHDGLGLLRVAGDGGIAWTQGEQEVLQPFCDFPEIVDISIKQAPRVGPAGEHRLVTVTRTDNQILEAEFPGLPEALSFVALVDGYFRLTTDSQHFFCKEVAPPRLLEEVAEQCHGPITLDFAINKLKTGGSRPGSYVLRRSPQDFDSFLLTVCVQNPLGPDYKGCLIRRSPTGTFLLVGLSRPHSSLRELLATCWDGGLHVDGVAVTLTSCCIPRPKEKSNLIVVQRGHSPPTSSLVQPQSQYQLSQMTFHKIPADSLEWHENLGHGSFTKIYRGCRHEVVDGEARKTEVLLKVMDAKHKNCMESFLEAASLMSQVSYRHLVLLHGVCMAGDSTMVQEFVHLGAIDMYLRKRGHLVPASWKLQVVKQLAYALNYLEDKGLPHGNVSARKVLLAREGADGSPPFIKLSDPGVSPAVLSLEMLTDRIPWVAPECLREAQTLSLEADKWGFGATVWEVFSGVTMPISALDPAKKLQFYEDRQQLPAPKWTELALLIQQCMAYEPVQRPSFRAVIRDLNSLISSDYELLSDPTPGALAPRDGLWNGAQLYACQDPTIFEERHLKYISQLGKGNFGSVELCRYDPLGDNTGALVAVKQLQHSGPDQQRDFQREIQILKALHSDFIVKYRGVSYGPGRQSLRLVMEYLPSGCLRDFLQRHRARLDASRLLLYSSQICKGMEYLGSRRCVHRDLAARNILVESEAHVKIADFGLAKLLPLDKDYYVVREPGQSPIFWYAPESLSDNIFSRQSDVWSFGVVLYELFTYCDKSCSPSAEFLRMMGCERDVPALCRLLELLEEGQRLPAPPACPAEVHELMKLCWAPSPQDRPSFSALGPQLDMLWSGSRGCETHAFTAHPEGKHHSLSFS
Calcium/calmodulin-dependent protein kinase type 1B (Homo sapiens), sequence (Q6P2M8 whole entry): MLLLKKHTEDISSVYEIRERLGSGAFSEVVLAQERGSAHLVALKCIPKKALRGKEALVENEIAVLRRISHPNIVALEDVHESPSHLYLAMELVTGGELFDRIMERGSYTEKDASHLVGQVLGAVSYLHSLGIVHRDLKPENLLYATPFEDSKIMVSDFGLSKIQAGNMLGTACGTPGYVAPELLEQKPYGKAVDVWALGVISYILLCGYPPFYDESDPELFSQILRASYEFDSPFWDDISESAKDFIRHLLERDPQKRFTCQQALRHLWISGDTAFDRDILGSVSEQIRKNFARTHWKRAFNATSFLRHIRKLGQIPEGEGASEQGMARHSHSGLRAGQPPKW

How did the inhibition at 60 min, 10 µM [1] turn out when `CC1=C(C#N)C(c2ccc3[nH]nc(C)c3c2)C(C#N)=C(C)N1` [BAY-474] was run?
The inhibition at 60 min, 10 µM was -1% (not active).

What about the inhibition [2] of the same molecule?
Its inhibition is 15%.

And the inhibition [3]?
Its inhibition is -3%.

And the inhibition [4]?
The inhibition was -3%.

What about the inhibition [5] of the same molecule?
Its inhibition is -5%.

What about the inhibition [6] of the same molecule?
The inhibition was -10%.

And the inhibition [7]?
The inhibition was 0%.

What about the inhibition [8] of the same molecule?
Its inhibition is 26%.

And the inhibition [9]?
Its inhibition is 4%.

What about the inhibition [10] of the same molecule?
Its inhibition is -9%.

What about the inhibition [11] of the same molecule?
Its inhibition is 10%.

And the inhibition [12]?
The inhibition was 10%.

And the inhibition [13]?
The inhibition was -3%.

`CC1=C(C#N)[C@@H](c2ccc3[nH]nc(C)c3c2)C(C#N)=C(c2ccc(Cl)cc2)N1` [BAY-827] was tested. Which residual activity [14] did it give?
The residual activity was 100%.

And the residual activity [15]?
Its residual activity is 78.6%.

What about the residual activity [16] of the same molecule?
The residual activity was 100%.

What about the residual activity [17] of the same molecule?
Its residual activity is 100%.

And the residual activity [18]?
Its residual activity is 92.3%.

And the residual activity [19]?
The residual activity was 96.4%.

What about the residual activity [20] of the same molecule?
The residual activity was 98.5%.

And the residual activity [21]?
Its residual activity is 100%.

What about the residual activity [22] of the same molecule?
Its residual activity is 100%.

And the residual activity [23]?
The residual activity was 100%.

What about the residual activity [24] of the same molecule?
Its residual activity is 90.9%.

And the residual activity [25]?
The residual activity was 100%.

What about the residual activity [26] of the same molecule?
The residual activity was 100%.

And the residual activity [27]?
Its residual activity is 96.8%.

And the residual activity [28]?
Its residual activity is 79.5%.

What about the residual activity [29] of the same molecule?
The residual activity was 100%.

And the residual activity [30]?
Its residual activity is 100%.

And the residual activity [31]?
The residual activity was 100%.

And the residual activity [32]?
Its residual activity is 100%.

And the residual activity [33]?
The residual activity was 100%.

And the residual activity [34]?
The residual activity was 100%.

What about the residual activity [35] of the same molecule?
The residual activity was 72.2%.
